Measured values taken from PubChem BioAssay (NCI).
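How tested: cells in 96-well plates exposed to compound for 48 hours at five concentrations. TGI marks complete inhibition of growth.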

Legend:
Assay in all cases: DTP human tumour cell line panel, 48 h
[1] = test system: SF-295 CNS
[2] = test system: LOX IMVI melanoma
[3] = test system: HOP-62 NSCLC
[4] = test system: UACC-62 melanoma
[5] = test system: BT-549 breast
[6] = test system: COLO 205 colon
[7] = test system: SF-539 CNS
[8] = test system: HT29 colon
[9] = test system: NCI-H522 lung
[10] = test system: SN12C renal
[11] = test system: RXF 393 renal
[12] = test system: HCC-2998 colon
[13] = test system: U251 CNS
[14] = test system: DU-145 prostate
[15] = test system: M14 melanoma
[16] = test system: MDA-MB-231 breast
[17] = test system: SW-620 colon
[18] = test system: MDA-N
[19] = test system: HOP-92 NSCLC
[20] = test system: NCI-H226 lung
[21] = test system: SNB-19 CNS
[22] = test system: EKVX NSCLC
[23] = test system: CCRF-CEM leukemia
[24] = test system: KM12 colon
[25] = test system: PC-3 prostate
[26] = test system: CAKI-1 renal
[27] = test system: OVCAR-8 ovarian
[28] = test system: SK-MEL-28 melanoma
[29] = test system: A549 NSCLC
[30] = test system: MOLT-4 leukemia
[31] = test system: OVCAR-5 ovarian
[32] = test system: ACHN renal
[33] = test system: UO-31 renal
[34] = test system: IGROV1 ovarian
[35] = test system: UACC-257 melanoma
[36] = test system: A498 renal
[37] = test system: MCF7 breast
[38] = test system: MDA-MB-435
[39] = test system: HCT-15 colon
[40] = test system: NCI-H23 lung
[41] = test system: HL-60(TB) leukemia
[42] = test system: SK-MEL-2 melanoma
[43] = test system: RPMI-8226 leukemia
[44] = test system: HCT-116 colon
[45] = test system: K-562 leukemia
[46] = test system: TK-10 renal
[47] = test system: NCI/ADR-RES ovarian
[48] = test system: SK-MEL-5 melanoma
[49] = test system: NCI-H460 lung
[50] = test system: SF-268 CNS
[51] = test system: 786-0 renal
[52] = test system: SR leukemia
[53] = test system: OVCAR-4 ovarian
[54] = test system: OVCAR-3 ovarian
[55] = test system: SNB-75 CNS
[56] = test system: MALME-3M melanoma
[57] = test system: SK-OV-3 ovarian
[58] = test system: T-47D breast
[59] = test system: HS 578T breast

O=C1CC[C@@]2(O)[C@H]3Cc4ccc(-c5cccc(O)c5)c5c4[C@@]2(CCN3CC2CC2)[C@H]1O5
TGI [1]: 43.9 µM
TGI [2]: 27.2 µM
TGI [3]: 66.2 µM
TGI [4]: 28.2 µM
TGI [5]: 76.6 µM
TGI [6]: 43.3 µM
TGI [7]: 36.6 µM
TGI [8]: 33.4 µM
TGI [9]: 30.9 µM
TGI [10]: > 83.3 µM
TGI [11]: 52.7 µM
TGI [12]: 34.1 µM
TGI [13]: 25.1 µM
TGI [14]: > 100 µM
TGI [15]: 26.2 µM
TGI [16]: 46.9 µM
TGI [17]: > 55.6 µM
TGI [18]: 30.9 µM
TGI [19]: 80.8 µM
TGI [20]: 90.2 µM
TGI [21]: > 100 µM
TGI [22]: > 30.4 µM
TGI [23]: 0.513 µM
TGI [24]: 57.5 µM
TGI [25]: > 91.2 µM
TGI [26]: > 100 µM
TGI [27]: 44.4 µM
TGI [28]: > 100 µM
TGI [29]: > 100 µM
TGI [30]: 56.4 µM
TGI [31]: > 80.3 µM
TGI [32]: > 85.9 µM
TGI [33]: 42.7 µM
TGI [34]: > 89.6 µM
TGI [35]: 26.5 µM
TGI [36]: 48.3 µM
TGI [37]: > 92.4 µM
TGI [38]: 27.8 µM
TGI [39]: 71.3 µM
TGI [40]: > 84 µM
TGI [41]: 4.92 µM
TGI [42]: 24.8 µM
TGI [43]: 52.1 µM
TGI [44]: 38.6 µM
TGI [45]: 47 µM
TGI [46]: 47 µM
TGI [47]: 53.2 µM
TGI [48]: 31.2 µM
TGI [49]: 29.2 µM
TGI [50]: 67.1 µM
TGI [51]: 36.6 µM
TGI [52]: 66.9 µM
TGI [53]: > 100 µM
TGI [54]: 43.9 µM

COC(=O)[C@@]12CCCC(=O)[C@@H]1[C@H]1CCC[C@H]12
TGI [1]: > 100 µM
TGI [55]: > 100 µM
TGI [2]: > 100 µM
TGI [3]: > 100 µM
TGI [4]: > 100 µM
TGI [5]: > 100 µM
TGI [6]: > 100 µM
TGI [7]: > 100 µM
TGI [8]: > 100 µM
TGI [9]: > 100 µM
TGI [10]: > 100 µM
TGI [11]: > 100 µM
TGI [12]: > 100 µM
TGI [13]: > 100 µM
TGI [14]: > 100 µM
TGI [15]: > 100 µM
TGI [16]: > 100 µM
TGI [17]: > 100 µM
TGI [18]: > 100 µM
TGI [19]: > 100 µM
TGI [20]: > 100 µM
TGI [21]: > 100 µM
TGI [22]: > 100 µM
TGI [23]: > 100 µM
TGI [24]: > 100 µM
TGI [25]: > 100 µM
TGI [56]: > 100 µM
TGI [26]: > 100 µM
TGI [27]: > 100 µM
TGI [28]: > 100 µM
TGI [29]: > 100 µM
TGI [30]: > 100 µM
TGI [31]: > 100 µM
TGI [32]: > 100 µM
TGI [33]: > 100 µM
TGI [34]: > 100 µM
TGI [35]: > 100 µM
TGI [37]: > 100 µM
TGI [38]: > 100 µM
TGI [39]: > 100 µM
TGI [40]: > 100 µM
TGI [42]: > 100 µM
TGI [43]: > 100 µM
TGI [44]: > 100 µM
TGI [45]: > 100 µM
TGI [46]: > 100 µM
TGI [47]: > 100 µM
TGI [48]: > 100 µM
TGI [57]: > 100 µM
TGI [49]: > 100 µM
TGI [50]: > 100 µM
TGI [51]: > 100 µM
TGI [52]: > 100 µM
TGI [53]: > 100 µM
TGI [54]: > 100 µM

O=C1c2ccccc2C2=Cc3ccccc3C(O)N12 (stereo not given)
TGI [1]: > 100 µM
TGI [55]: > 100 µM
TGI [2]: > 100 µM
TGI [3]: > 100 µM
TGI [4]: 65.3 µM
TGI [6]: > 100 µM
TGI [7]: > 100 µM
TGI [8]: > 100 µM
TGI [9]: 40.8 µM
TGI [10]: > 100 µM
TGI [11]: 83.8 µM
TGI [12]: > 100 µM
TGI [13]: > 100 µM
TGI [14]: > 100 µM
TGI [15]: > 100 µM
TGI [16]: > 100 µM
TGI [58]: > 100 µM
TGI [17]: > 100 µM
TGI [18]: > 100 µM
TGI [19]: > 100 µM
TGI [20]: > 100 µM
TGI [21]: > 100 µM
TGI [22]: > 100 µM
TGI [23]: > 100 µM
TGI [24]: > 100 µM
TGI [25]: > 100 µM
TGI [56]: > 100 µM
TGI [26]: 43.2 µM
TGI [27]: > 100 µM
TGI [28]: > 100 µM
TGI [29]: > 100 µM
TGI [30]: 91.9 µM
TGI [31]: > 100 µM
TGI [59]: > 100 µM
TGI [32]: > 100 µM
TGI [33]: 35 µM
TGI [34]: > 100 µM
TGI [35]: > 100 µM
TGI [36]: > 100 µM
TGI [37]: > 100 µM
TGI [38]: > 100 µM
TGI [39]: > 100 µM
TGI [40]: > 100 µM
TGI [41]: 64.1 µM
TGI [42]: > 100 µM
TGI [43]: > 100 µM
TGI [44]: > 100 µM
TGI [45]: > 100 µM
TGI [46]: > 100 µM
TGI [47]: > 100 µM
TGI [48]: > 100 µM
TGI [57]: > 100 µM
TGI [49]: > 100 µM
TGI [50]: > 100 µM
TGI [51]: > 100 µM
TGI [52]: 83.5 µM
TGI [53]: > 100 µM
TGI [54]: > 100 µM

CCc1nnc(CC)n1-n1c(Cc2ccccc2)n[nH]c1=O
TGI [1]: > 100 µM
TGI [55]: > 100 µM
TGI [2]: > 100 µM
TGI [3]: > 100 µM
TGI [4]: > 100 µM
TGI [5]: > 100 µM
TGI [6]: > 100 µM
TGI [7]: > 100 µM
TGI [8]: > 100 µM
TGI [9]: > 100 µM
TGI [10]: > 100 µM
TGI [11]: > 100 µM
TGI [12]: > 100 µM
TGI [13]: > 100 µM
TGI [14]: > 100 µM
TGI [15]: > 100 µM
TGI [16]: > 100 µM
TGI [17]: > 100 µM
TGI [18]: > 100 µM
TGI [19]: > 100 µM
TGI [21]: > 100 µM
TGI [22]: > 100 µM
TGI [23]: > 100 µM
TGI [24]: > 100 µM
TGI [25]: > 100 µM
TGI [27]: > 100 µM
TGI [28]: > 100 µM
TGI [29]: > 100 µM
TGI [30]: > 100 µM
TGI [31]: > 100 µM
TGI [32]: > 100 µM
TGI [33]: > 100 µM
TGI [34]: > 100 µM
TGI [35]: > 100 µM
TGI [37]: > 100 µM
TGI [38]: > 100 µM
TGI [39]: > 100 µM
TGI [40]: > 100 µM
TGI [42]: > 100 µM
TGI [43]: > 100 µM
TGI [44]: > 100 µM
TGI [45]: > 100 µM
TGI [46]: > 100 µM
TGI [47]: > 100 µM
TGI [48]: > 100 µM
TGI [57]: > 100 µM
TGI [50]: > 100 µM
TGI [51]: > 100 µM
TGI [52]: > 100 µM
TGI [53]: > 100 µM
TGI [54]: > 100 µM

CC(=O)CC(O)(C(F)(F)Cl)C(F)(F)Cl
TGI [1]: > 10 µM
TGI [55]: > 10 µM
TGI [2]: > 10 µM
TGI [3]: > 10 µM
TGI [4]: > 10 µM
TGI [6]: > 10 µM
TGI [7]: > 10 µM
TGI [8]: > 10 µM
TGI [9]: > 10 µM
TGI [10]: > 10 µM
TGI [11]: > 10 µM
TGI [12]: > 10 µM
TGI [13]: > 10 µM
TGI [14]: > 10 µM
TGI [15]: > 10 µM
TGI [16]: > 10 µM
TGI [58]: > 10 µM
TGI [17]: > 10 µM
TGI [18]: > 10 µM
TGI [19]: > 10 µM
TGI [20]: > 10 µM
TGI [21]: > 10 µM
TGI [22]: > 10 µM
TGI [23]: > 10 µM
TGI [24]: > 10 µM
TGI [25]: > 10 µM
TGI [56]: > 10 µM
TGI [26]: > 10 µM
TGI [27]: > 10 µM
TGI [28]: > 10 µM
TGI [29]: > 10 µM
TGI [30]: > 10 µM
TGI [59]: > 10 µM
TGI [32]: > 10 µM
TGI [33]: > 10 µM
TGI [34]: > 10 µM
TGI [35]: > 10 µM
TGI [36]: > 10 µM
TGI [37]: > 10 µM
TGI [38]: > 10 µM
TGI [39]: > 10 µM
TGI [40]: > 10 µM
TGI [41]: > 10 µM
TGI [42]: > 10 µM
TGI [43]: > 10 µM
TGI [44]: > 10 µM
TGI [45]: > 10 µM
TGI [46]: > 10 µM
TGI [47]: > 10 µM
TGI [48]: > 10 µM
TGI [57]: > 10 µM
TGI [49]: > 10 µM
TGI [50]: > 10 µM
TGI [51]: > 10 µM
TGI [52]: > 10 µM
TGI [53]: > 10 µM
TGI [54]: > 10 µM
